Experimental data published in patent US8901072B2, “Glycopeptide and lipoglycopeptide antibiotics with improved solubility” (The Medicines Company, priority 2009, dated 2014).
Values after ≈ are worked out from the molar mass of the structure shown.

Columns and labels:
S. aureus ATCC 13709 = assay: In vitro antibacterial susceptibility (MIC, broth microdilution); type: cell-based; details: for MIC against S. aureus ATCC 13709, CAMHB: cation-adjusted Mueller-Hinton broth, 37° C., 18 h; for Antibacterial activity compared with oritavancin 5: deduced from the MIC data of Table 2
Method: Susceptibility of S. aureus strain ATCC13709 to oritavancin (5) and synthesized compounds was determined following the guidelines set by the Clinical and Laboratory Standards Institute (formerly the National Committee for Clinical Laboratory Standards) (M26-A). Compounds were serially diluted two-fold in either DMSO (Oritavancin 5) or in PBS and transferred to cation-adjusted Mueller Hinton broth (CAMHB; Becton Dickinson). 50 μL of compounds diluted in CAMHB was mixed with 100 μL of bacteria diluted in CAMHB in 96-well microtiter plates. The final number of micro-organisms in the assay was 5×10^5 c.f.u. per mL and the final concentration of DMSO in the assay, if present, was 1.25%. All solutions may contain 0.002% Tween as indicated. Assays were set up in duplicate and incubated at 37° C. for 18 h. The concentration of compound that inhibited visible growth was reported as the minimum inhibitory concentration (MIC).

[1] = Solubility in phosphate buffered saline; type: physicochemical; details: 10 mM phosphate buffered saline (0.138 M NaCl, 2.7 mM KCl), pH 7.4
Method: To a sample of the material of known mass were added known volumes of phosphate buffered saline until complete dissolution is observed. Suspensions were centrifuged for 5 min at 10000 rpm. […] Upon complete dissolution, the solution is diluted until the final concentration is 0.5 mg/mL to ensure that the material remains soluble over the entire range of concentrations.

[2] = system: S. aureus strain ATCC13709; assay: Neutropenic mouse thigh infection model; type: in vivo, mice; details: for In vivo antibacterial efficacy compared with oritavancin: deduced from the data of Table 3; for Recovered bacterial titers per thigh, 1 mg/kg / Recovered bacterial titers per thigh, 10 mg/kg / Recovered bacterial titers per thigh, 40 mg/kg: neutropenic mice, 24 h postinfection; for Recovered bacterial titers per thigh, 1 mg/kg: 1 mg/kg one hour after inoculation; for Recovered bacterial titers per thigh, 10 mg/kg: 10 mg/kg one hour after inoculation; for Recovered bacterial titers per thigh, 40 mg/kg: 40 mg/kg one hour after inoculation
Method: The susceptibility of S. aureus strain ATCC13709 to oritavancin (5) and selected synthesized compounds in vivo was evaluated with the well accepted neutropenic mouse thigh infection model (Craig, W. A. et al. Journal of Antimicrobial Chemotherapy (1991), 27 (Suppl. C):29-40). Mice were made neutropenic by treatment with cyclophosphamide (150 and 100 mg/kg of body weight administered intraperitoneally 4 days and 1 day prior to infection). Mice were anesthetized briefly with approximately 4% isoflurane just prior to inoculation. The bacterial suspension (0.1 mL) was injected intramuscularly into each thigh (approximately 10^5 colony forming units (CFU)/thigh). The selected agents were administered in 10% (w/w) β-hydroxypropylcyclodextrin in water at a concentration of 10 mg/mL one hour following bacterial inoculation. The animals were humanely sacrificed by CO2 asphyxiation 24 h postinfection. The entire thigh muscle mass including the bone was homogenized and diluted in 0.9% saline and aliquots were plated on Brain-Heart Infusion agar. Following overnight incubation at 37° C., bacteria were enumerated for each thigh and expressed as log10 CFU per thigh. This was performed over three independent experiments and oritavancin (5) was used as a comparator in each.

## CNC(CC(C)C)C(=O)NC1C(=O)NC(CC(N)=O)C(=O)NC2C(=O)NC3C(=O)NC(C(=O)NC(C(=O)SCC(=O)NCCCN)c4cc(O)cc(O)c4-c4cc3ccc4O)C(OC3CC(C)(N)C(O)C(C)O3)c3ccc(c(Cl)c3)Oc3cc2cc(c3OC2OC(CO)C(O)C(O)C2OC2CC(C)(NCc3ccc(-c4ccc(Cl)cc4)cc3)C(O)C(C)O2)Oc2ccc(cc2Cl)C1O (centres unmarked) [Compound 93]
S. aureus ATCC 13709
  MIC against S. aureus ATCC 13709, CAMHB + 0.002% tween: 0.125 µg/mL
  MIC against S. aureus ATCC 13709, CAMHB + 50% human serum: 0.25 µg/mL
  MIC against S. aureus ATCC 13709, CAMHB + 50% mouse serum: 1 µg/mL
  MIC against S. aureus ATCC 13709, CAMHB: 0.5 µg/mL (≈ 0.26 µM)
  Antibacterial activity compared with oritavancin 5: within an order of magnitude of that of oritavancin 5
[1]
  Solubility (mg/mL) PBS: ≧100 mg/mL
[2]
  In vivo antibacterial efficacy compared with oritavancin: within the same order of magnitude than oritavancin itself
  Recovered bacterial titers per thigh, 1 mg/kg: 8.53 ± 0.49 Log10 CFU/thigh
  Recovered bacterial titers per thigh, 10 mg/kg: 4.45 ± 1.68 Log10 CFU/thigh
  Recovered bacterial titers per thigh, 40 mg/kg: 4.18 ± 1.70 Log10 CFU/thigh

## CNC(CC(C)C)C(=O)NC1C(=O)NC(CC(N)=O)C(=O)NC2C(=O)NC3C(=O)NC(C(=O)NC(C(=O)OCC(=O)NCCN)c4cc(O)cc(O)c4-c4cc3ccc4O)C(OC3CC(C)(N)C(O)C(C)O3)c3ccc(c(Cl)c3)Oc3cc2cc(c3OC2OC(CO)C(O)C(O)C2OC2CC(C)(NCc3ccc(-c4ccc(Cl)cc4)cc3)C(O)C(C)O2)Oc2ccc(cc2Cl)C1O (centres unmarked) [Compound 90a]
S. aureus ATCC 13709
  MIC against S. aureus ATCC 13709, CAMHB + 0.002% tween: 0.5 µg/mL
  MIC against S. aureus ATCC 13709, CAMHB + 50% human serum: 0.25 µg/mL
  MIC against S. aureus ATCC 13709, CAMHB + 50% mouse serum: 0.5 µg/mL
  MIC against S. aureus ATCC 13709, CAMHB: 1 µg/mL (≈ 0.528 µM)
  Antibacterial activity compared with oritavancin 5: within an order of magnitude of that of oritavancin 5
[1]
  Solubility (mg/mL) PBS: ≧100 mg/mL
[2]
  Recovered bacterial titers per thigh, 1 mg/kg: 8.38 ± 0.23 Log10 CFU/thigh
  Recovered bacterial titers per thigh, 10 mg/kg: 6.13 ± 2.53 Log10 CFU/thigh
  Recovered bacterial titers per thigh, 40 mg/kg: 5.27 ± 2.66 Log10 CFU/thigh

## CNC(CC(C)C)C(=O)NC1C(=O)NC(CC(N)=O)C(=O)NC2C(=O)NC3C(=O)NC(C(=O)NC(C(=O)OCC[N+](C)(C)C)c4cc(O)cc(O)c4-c4cc3ccc4O)C(OC3CC(C)(N)C(O)C(C)O3)c3ccc(c(Cl)c3)Oc3cc2cc(c3OC2OC(CO)C(O)C(O)C2OC2CC(C)(NCc3ccc(-c4ccc(Cl)cc4)cc3)C(O)C(C)O2)Oc2ccc(cc2Cl)C1O (centres unmarked) [Compound 95]
S. aureus ATCC 13709
  MIC against S. aureus ATCC 13709, CAMHB + 0.002% tween: 0.25 µg/mL
  MIC against S. aureus ATCC 13709, CAMHB + 50% human serum: 0.5 µg/mL
  MIC against S. aureus ATCC 13709, CAMHB + 50% mouse serum: 2 µg/mL
  MIC against S. aureus ATCC 13709, CAMHB + 50% rat serum: 0.125 µg/mL
  MIC against S. aureus ATCC 13709, CAMHB: 1 µg/mL
  Antibacterial activity compared with oritavancin 5: within an order of magnitude of that of oritavancin 5
[1]
  Solubility (mg/mL) PBS: ≧100 mg/mL
[2]
  In vivo antibacterial efficacy compared with oritavancin: within the same order of magnitude than oritavancin itself
  Recovered bacterial titers per thigh, 1 mg/kg: 8.32 ± 0.17 Log10 CFU/thigh
  Recovered bacterial titers per thigh, 10 mg/kg: 3.95 ± 1.57 Log10 CFU/thigh
  Recovered bacterial titers per thigh, 40 mg/kg: 2.96 ± 0.96 Log10 CFU/thigh

## CNC(CC(C)C)C(=O)NC1C(=O)NC(CC(N)=O)C(=O)NC2C(=O)NC3C(=O)NC(C(=O)NC(C(=O)OCC(=O)NCCCCN)c4cc(O)cc(O)c4-c4cc3ccc4O)C(OC3CC(C)(N)C(O)C(C)O3)c3ccc(c(Cl)c3)Oc3cc2cc(c3OC2OC(CO)C(O)C(O)C2OC2CC(C)(NCc3ccc(-c4ccc(Cl)cc4)cc3)C(O)C(C)O2)Oc2ccc(cc2Cl)C1O (centres unmarked) [Compound 90c]
S. aureus ATCC 13709
  MIC against S. aureus ATCC 13709, CAMHB + 0.002% tween: 0.25 µg/mL
  MIC against S. aureus ATCC 13709, CAMHB + 50% human serum: 0.125 µg/mL
  MIC against S. aureus ATCC 13709, CAMHB + 50% mouse serum: 0.5 µg/mL
  MIC against S. aureus ATCC 13709, CAMHB: 1 µg/mL (≈ 0.52 µM)
  Antibacterial activity compared with oritavancin 5: within an order of magnitude of that of oritavancin 5
[1]
  Solubility (mg/mL) PBS: <1.6 mg/mL

## CC(C)CC(C(=O)NC1C(=O)NC(CC(N)=O)C(=O)NC2C(=O)NC3C(=O)NC(C(=O)NC(C(=O)O)c4cc(O)cc(O)c4-c4cc3ccc4O)C(OC3CC(C)(N)C(O)C(C)O3)c3ccc(c(Cl)c3)Oc3cc2cc(c3OC2OC(CO)C(O)C(O)C2OC2CC(C)(NCc3ccc(-c4ccc(Cl)cc4)cc3)C(O)C(C)O2)Oc2ccc(cc2Cl)C1O)N(C)C(=O)OCOC(=O)C(CCCCN)NC(=O)C(N)CCCCN (centres unmarked) [Compound 56]
S. aureus ATCC 13709
  MIC against S. aureus ATCC 13709, CAMHB + 0.002% tween: 0.5 µg/mL
  MIC against S. aureus ATCC 13709, CAMHB + 50% human serum: 4 µg/mL
  MIC against S. aureus ATCC 13709, CAMHB + 50% mouse serum: 0.5 µg/mL
  MIC against S. aureus ATCC 13709, CAMHB + 50% rat serum: 0.25 µg/mL
  MIC against S. aureus ATCC 13709, CAMHB: 2 µg/mL (≈ 0.942 µM)
  Antibacterial activity compared with oritavancin 5: within an order of magnitude of that of oritavancin 5
[1]
  Solubility (mg/mL) PBS: >5 mg/mL

## CNC(CC(C)C)C(=O)NC1C(=O)NC(CC(N)=O)C(=O)NC2C(=O)NC3C(=O)NC(C(=O)NC(C(=O)OCC(=O)N(C)CCN(C)C)c4cc(O)cc(O)c4-c4cc3ccc4O)C(OC3CC(C)(N)C(O)C(C)O3)c3ccc(c(Cl)c3)Oc3cc2cc(c3OC2OC(CO)C(O)C(O)C2OC2CC(C)(NCc3ccc(-c4ccc(Cl)cc4)cc3)C(O)C(C)O2)Oc2ccc(cc2Cl)C1O (centres unmarked) [Compound 103]
S. aureus ATCC 13709
  MIC against S. aureus ATCC 13709, CAMHB + 0.002% tween: 0.25 µg/mL
  MIC against S. aureus ATCC 13709, CAMHB + 50% human serum: 0.25 µg/mL
  MIC against S. aureus ATCC 13709, CAMHB + 50% mouse serum: 0.5 µg/mL
  MIC against S. aureus ATCC 13709, CAMHB + 50% rat serum: 0.125 µg/mL
  MIC against S. aureus ATCC 13709, CAMHB: 2 µg/mL (≈ 1.03 µM)
  Antibacterial activity compared with oritavancin 5: within an order of magnitude of that of oritavancin 5
[1]
  Solubility (mg/mL) PBS: ≧100 mg/mL

## CC(C)CC(C(=O)NC1C(=O)NC(CC(N)=O)C(=O)NC2C(=O)NC3C(=O)NC(C(=O)NC(C(=O)O)c4cc(O)cc(O)c4-c4cc3ccc4O)C(OC3CC(C)(NC(=O)OCOC(=O)C(N)CCCCN)C(O)C(C)O3)c3ccc(c(Cl)c3)Oc3cc2cc(c3OC2OC(CO)C(O)C(O)C2OC2CC(C)(NCc3ccc(-c4ccc(Cl)cc4)cc3)C(O)C(C)O2)Oc2ccc(cc2Cl)C1O)N(C)C(=O)OCOC(=O)C(N)CCCCN (centres unmarked) [Compound 46]
S. aureus ATCC 13709
  MIC against S. aureus ATCC 13709, CAMHB + 0.002% tween: 0.25 µg/mL
  MIC against S. aureus ATCC 13709, CAMHB + 50% human serum: 0.5 µg/mL
  MIC against S. aureus ATCC 13709, CAMHB + 50% mouse serum: 1 µg/mL
  MIC against S. aureus ATCC 13709, CAMHB + 50% rat serum: 0.25 µg/mL
  MIC against S. aureus ATCC 13709, CAMHB: 1 µg/mL (≈ 0.455 µM)
  Antibacterial activity compared with oritavancin 5: within an order of magnitude of that of oritavancin 5
[1]
  Solubility (mg/mL) PBS: <0.5 mg/mL

## CNC(CC(C)C)C(=O)NC1C(=O)NC(CC(N)=O)C(=O)NC2C(=O)NC3C(=O)NC(C(=O)NC(C(=O)NCCCNCCCCNCCCN)c4cc(O)cc(O)c4-c4cc3ccc4O)C(OC3CC(C)(N)C(O)C(C)O3)c3ccc(c(Cl)c3)Oc3cc2cc(c3OC2OC(CO)C(O)C(O)C2OC2CC(C)(NCc3ccc(-c4ccc(Cl)cc4)cc3)C(O)C(C)O2)Oc2ccc(cc2Cl)C1O (centres unmarked) [Compound 24]
S. aureus ATCC 13709
  MIC against S. aureus ATCC 13709, CAMHB + 0.002% tween: 0.5 µg/mL
  MIC against S. aureus ATCC 13709, CAMHB + 50% human serum: 1 µg/mL
  MIC against S. aureus ATCC 13709, CAMHB + 50% mouse serum: 0.06 µg/mL
  MIC against S. aureus ATCC 13709, CAMHB + 50% rat serum: 0.06 µg/mL
  MIC against S. aureus ATCC 13709, CAMHB: 1 µg/mL (≈ 0.506 µM)
  Antibacterial activity compared with oritavancin 5: within an order of magnitude of that of oritavancin 5
[1]
  Solubility (mg/mL) PBS: ≧100 mg/mL

## CNC(CC(C)C)C(=O)NC1C(=O)NC(CC(N)=O)C(=O)NC2C(=O)NC3C(=O)NC(C(=O)NC(C(=O)OCC(=O)NCCCNCCCCNCCCN)c4cc(O)cc(O)c4-c4cc3ccc4O)C(OC3CC(C)(N)C(O)C(C)O3)c3ccc(c(Cl)c3)Oc3cc2cc(c3OC2OC(CO)C(O)C(O)C2OC2CC(C)(NCc3ccc(-c4ccc(Cl)cc4)cc3)C(O)C(C)O2)Oc2ccc(cc2Cl)C1O (centres unmarked) [Compound 28]
S. aureus ATCC 13709
  MIC against S. aureus ATCC 13709, CAMHB + 0.002% tween: 0.125 µg/mL
  MIC against S. aureus ATCC 13709, CAMHB + 50% human serum: 0.25 µg/mL
  MIC against S. aureus ATCC 13709, CAMHB + 50% mouse serum: 0.25 µg/mL
  MIC against S. aureus ATCC 13709, CAMHB + 50% rat serum: 0.063 µg/mL
  MIC against S. aureus ATCC 13709, CAMHB: 2 µg/mL (≈ 0.983 µM)
  Antibacterial activity compared with oritavancin 5: within an order of magnitude of that of oritavancin 5
[1]
  Solubility (mg/mL) PBS: ≧100 mg/mL
